Measurements taken from ChEMBL document CHEMBL1145728, “Structure--activity relationships of the peptide deformylase inhibitor BB-3497: modification of the P2' and P3' side chains” (Bioorg Med Chem Lett, 2003).
Converted amounts (≈) assume the structure as drawn.

Experiments:
[1] = test system: Escherichia coli; assay: Antibacterial activity against Escherichia coli.; format: functional
[2] = test system: Staphylococcus capitis; assay: Antibacterial activity against Staphylococcus capitis.; format: functional
[3] = biological target: T1, Peptide deformylase (Escherichia coli, UniProt Q9JN24); assay: Inhibition concentration against Escherichia coli peptide deformylase.
T1 sequence (Q9JN24 whole entry): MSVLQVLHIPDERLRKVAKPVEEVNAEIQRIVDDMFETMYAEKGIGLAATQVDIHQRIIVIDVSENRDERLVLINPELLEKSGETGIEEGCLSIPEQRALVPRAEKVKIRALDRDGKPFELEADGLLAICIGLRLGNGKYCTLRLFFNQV

[4] = Escherichia coli, read-out: MIC
[5] = Staphylococcus capitis, read-out: MIC

| Structure (SMILES) | MIC [1, 4] [µM] | MIC [2, 5] [µM] | IC50 [3] [nM] | MIC [1] [µM] | MIC [2] [µM] |
| --- | --- | --- | --- | --- | --- |
| CCCC[C@H](CN(O)C=O)C(=O)N[C@@H](C)C(=O)N(C)C | 25 (≈ 7.18 µg/mL) | 100 (≈ 28.7 µg/mL) | 40 | – | – |
| CCCC[C@H](CN(O)C=O)C(=O)N[C@H](C(=O)N(C)C)C(C)CC (some centres undefined) | 25 (≈ 8.24 µg/mL) | 12.5 (≈ 4.12 µg/mL) | 20 | – | – |
| CCCC[C@H](CN(O)C=O)C(=O)N[C@H](C(=O)N1CCCc2ccccc21)C(C)(C)C | 50 (≈ 20.9 µg/mL) | 50 (≈ 20.9 µg/mL) | 9 | – | – |
| CCCC[C@H](CN(O)C=O)C(=O)N1CCC[C@H]1C(=O)N(C)C | > 200 | 50 (≈ 15.7 µg/mL) | 400 | – | – |
| CCCC[C@H](CN(O)C=O)C(=O)N[C@H](C(=O)N(CCc1ccccc1)Cc1ccccc1)C(C)(C)C | > 200 | 100 (≈ 49.6 µg/mL) | 90 | – | – |
| CCCC[C@H](CN(O)C=O)C(=O)N[C@@H](Cc1ccccc1)C(=O)N(C)C | 100 (≈ 36.3 µg/mL) | 50 (≈ 18.2 µg/mL) | – | – | – |
| CCCC[C@H](CN(O)C=O)C(=O)N[C@@H](CC(C)C)C(=O)N(C)C | 50 (≈ 16.5 µg/mL) | 50 (≈ 16.5 µg/mL) | 20 | – | – |
| CCCC[C@H](CN(O)C=O)C(=O)N[C@H](C(=O)N(C)C)C(C)C | 25 (≈ 7.89 µg/mL) | 25 (≈ 7.89 µg/mL) | 20 | – | – |
| CCCC[C@H](CN(O)C=O)C(=O)N[C@H](C(=O)OC)C(C)(C)C | 50 (≈ 15.8 µg/mL) | 200 (≈ 63.3 µg/mL) | 30 | – | – |
| CCCC[C@H](CN(O)C=O)C(=O)N[C@H](C(=O)N1CCCC2CCCCC21)C(C)(C)C (some centres undefined) | > 200 | 50 (≈ 21.2 µg/mL) | – | – | – |
| CCCC[C@H](CN(O)C=O)C(=O)N[C@H](C(=O)N(C)C)C(C)(C)C (stereo in doubt; form 1) | – | – | 7 | – | – |
| CCCC[C@H](CN(O)C=O)C(=O)N[C@@H](CCCCN(C)C)C(=O)N(C)C | > 200 | > 200 | 300 | – | – |
| CCCC[C@H](CN(O)C=O)C(=O)N[C@H](C(=O)N(C)C)C(C)(C)C (stereo in doubt; form 2) | – | – | 40 | 100 (≈ 32.9 µg/mL) | >200 |
| CCCC[C@H](CN(O)C=O)C(=O)N[C@@H](CC(=O)OCc1ccccc1)C(=O)N(C)C | > 200 | 25 (≈ 10.5 µg/mL) | 100 | – | – |
| CCCC[C@H](CN(O)C=O)C(=O)N[C@H](C(=O)N1CCCC1)C(C)(C)C | 25 (≈ 8.89 µg/mL) | 25 (≈ 8.89 µg/mL) | – | – | – |
| CCCC[C@H](CN(O)C=O)C(=O)N[C@@H](CSCc1ccccc1)C(=O)N(C)C | 200 (≈ 81.9 µg/mL) | 12.5 (≈ 5.12 µg/mL) | 70 | – | – |
| CCCC[C@H](CN(O)C=O)C(=O)N[C@@H](CCC(=O)OCc1ccccc1)C(=O)N(C)C | > 200 | 200 (≈ 87.1 µg/mL) | 20 | – | – |
| CCCC[C@H](CN(O)C=O)C(=O)N[C@H](C(=O)N(C)C)C(C)(C)OC | 25 (≈ 8.64 µg/mL) | 100 (≈ 34.5 µg/mL) | – | – | – |
| CCCC[C@H](CN(O)C=O)C(=O)N[C@@H](CCCNC(=N)N)C(=O)N(C)C | > 200 | 50 (≈ 18.6 µg/mL) | 20 | – | – |

| Structure (SMILES) | MIC [1, 4] [µM] | MIC [2, 5] [µM] | IC50 [3] [nM] | MIC [1] [µM] | MIC [2] [µM] |
| --- | --- | --- | --- | --- | --- |
| CCCC[C@H](CN(O)C=O)C(=O)N[C@@H](CC1CCCCC1)C(=O)N(C)C | 100 (≈ 37 µg/mL) | 100 (≈ 37 µg/mL) | 30 | – | – |
| CCCC[C@H](CN(O)C=O)C(=O)N[C@H](C(=O)N1CCC(Cc2ccccc2)CC1)C(C)(C)C | 200 (≈ 91.9 µg/mL) | 6.25 (≈ 2.87 µg/mL) | 20 | – | – |
| CCCC[C@H](CN(O)C=O)C(=O)N[C@@H](CO)C(=O)N(C)C | 100 (≈ 30.3 µg/mL) | 50 (≈ 15.2 µg/mL) | – | – | – |
| CCCC[C@H](CN(O)C=O)C(=O)N1Cc2ccccc2C[C@H]1C(=O)N(C)C | > 200 | > 200 | – | – | – |
| CCCC[C@H](CN(O)C=O)C(=O)N[C@H](C(=O)N(C)C)C(C)(C)SC | 25 (≈ 9.04 µg/mL) | 25 (≈ 9.04 µg/mL) | – | – | – |
| CCCC[C@H](CN(O)C=O)C(=O)N[C@H](C(=O)N1CCOCC1)C(C)(C)C | 25 (≈ 9.29 µg/mL) | 25 (≈ 9.29 µg/mL) | 20 | – | – |
| CCCC[C@H](CN(O)C=O)C(=O)N[C@H](C(=O)N1CCC(C(=O)OCC)CC1)C(C)(C)C | > 200 | 25 (≈ 11 µg/mL) | 10 | – | – |
| CCCC[C@H](CN(O)C=O)C(=O)N[C@H](C(=O)O)C(C)(C)C | > 200 | > 200 | 80 | – | – |
| CCCC[C@H](CN(O)C=O)C(=O)N[C@@H](Cc1ccc(O)cc1)C(=O)N(C)C | > 200 | > 200 | 300 | – | – |
| CCCC[C@H](CN(O)C=O)C(=O)N[C@H](C(=O)N1CCC(C(C)=O)CC1)C(C)(C)C | 100 (≈ 41.2 µg/mL) | 25 (≈ 10.3 µg/mL) | 10 | – | – |
| CCCC[C@H](CN(O)C=O)C(=O)N[C@H](C(=O)N(C)C1CCCCC1)C(C)(C)C | > 200 | 100 (≈ 39.8 µg/mL) | – | – | – |
| CCCC[C@H](CN(O)C=O)C(=O)N[C@H](C(=O)N1CCN(C)CC1)C(C)(C)C | 25 (≈ 9.61 µg/mL) | 50 (≈ 19.2 µg/mL) | 50 | – | – |
| CCCC[C@H](CN(O)C=O)C(=O)N[C@@H](Cc1ccc(Cl)cc1)C(=O)N(C)C | > 200 | 100 (≈ 39.8 µg/mL) | 50 | – | – |
| CCCC[C@H](CN(O)C=O)C(=O)N[C@H](C(=O)N1CCC(C)CC1)C(C)(C)C | 100 (≈ 38.4 µg/mL) | 50 (≈ 19.2 µg/mL) | 10 | – | – |
| CCCC[C@H](CN(O)C=O)C(=O)N[C@H](C(C)=O)C(C)(C)C | 25 (≈ 7.51 µg/mL) | 100 (≈ 30 µg/mL) | 20 | – | – |
| CCCC[C@H](CN(O)C=O)C(=O)NCC(=O)N(C)C | 50 (≈ 13.7 µg/mL) | > 200 | – | – | – |
| CCCC[C@H](CN(O)C=O)C(=O)N[C@@H](CCCCN)C(=O)N(C)C | > 200 | > 200 | 200 | – | – |
| CCCC[C@H](CN(O)C=O)C(=O)N[C@H](C(=O)N(C)C)C(C)(C)O | 12.5 (≈ 4.14 µg/mL) | 25 (≈ 8.29 µg/mL) | – | – | – |
